Tested on: hemodialysis patients with uremic pruritus who completed the Example 2 study
Test: Phase 2/3 Open Label Extension Study (up to 24 weeks)
Assay type: in vivo, human
Source text: This clinical study was a Phase 2/3 Open Label Extension Study of the randomized, double-blind, 3-parallel arm, placebo controlled dose ranging study described in Example 2. All those subjects who were randomized, and then completed Example 2 study, were eligible to participate in the Extension Study.
The primary endpoint was a description of the overall incidence and nature of Treatment-Emergent AEs (TEAES) with the secondary endpoint a description of the incidence and nature of TEAEs during Treatment Weeks 4-24. Exploratory efficacy endpoints related to collecting data on the PRO instruments (NRS, Skindex-10, Itch MOS Sleep, HADS, PADS), the same instruments evaluated in Example 2.
Of the 373 patients that were randomized to the study of Example 2, 184 subjects both completed the study of Example 2 and enrolled into Extension Study. 167 subjects who enrolled into Extension Study entered the Treatment Period of the study and were exposed to nalbuphine HCl ER tablet administration and are the basis of the study safety population analysis. 17 subjects who were enrolled in the Extension were never dosed, they were categorized as screen failures and they are not part of the analysis.
Patients in Extension Study were titrated over a dose range of 30 mg QD to 120 mg BID based on tolerability and efficacy. The selected dose range was based on Example 2 study whereby patients were titrated from a 30 mg QD dose either to 60 mg BID or a 120 mg BID dose. The highest dose proposed was 120 mg BID (240 mg daily dose), and was well below the highest recommended daily treatment of 160 mg IV (equivalent to 960 mg oral) for the current marketed product.
The study duration for each patient was up to 26 weeks, with up to 24 weeks on study drug. The Extension Study consisted of a Treatment Period (that was followed by a Washout Safety Follow-up Period) and an Observation Period. Patients either entered directly into a drug Treatment Period (NRS >2) or a no-drug Observation Period (NRS ≦2) based on their reported NRS scores on the first Visit (Visit 1a). For up to 12 Extended Screening weeks, patients in the no-drug Observation Period could have also transitioned into the drug Treatment Period if their NRS increased to NRS >2. All patients entering the Treatment Period, whether immediately upon study entry or following a period of time in the Observation Period, were titrated to a dose ranging between 30 mg up to 120 mg BID, the highest dose tested in Example 2.
The total study duration for any individual patient was up to 26 weeks. […] For patients who entered the Treatment Period from the Observation Period, the total amount of time spent in the combined two periods of the study could not exceed 24 weeks.

[1] = safety population, titrated 30 mg QD to 120 mg BID, up to 24 weeks, most pronounced with baseline NRS ≧7

Question: What does the source list for `Cl.Oc1ccc2c3c1O[C@H]1[C@@H](O)CC[C@@]4(O)[C@@H](C2)N(CC2CCC2)CC[C@]314` [Nalbuphine, 17-(cyclobutylmethyl)-4,5α-epoxymorphinian-3,6α, 14-triol, hydrochloride]?
Answer: Mean Skindex-10 by week [1]: decreased from baseline to all measured time points; Mean worst itch NRS by week [1]: decreased from baseline to all measured time points; safety findings (treatment period up to 24 weeks): consistent with the known safety profile of nalbuphine; tolerance to the anti-pruritic effects (up to 24 weeks): do not develop a tolerance

Reference: patent US20180008592A1, “TREATMENT OF UREMIC PRURITUS” (TREVI THERAPEUTICS, INC., priority 2016, published 2018)
